# Laboratory results as given in patent US20230295234A1, “ANTIMICROBIAL PEPTIDOMIMETICS” (SPEXIS AG, priority 2020, published 2023).
# Where two headings read alike, the source gives them in different places. Peptide text beside a SMILES is read from it.
# Legend:
# [1] = test system: Klebsiella pneumoniae SSI3010
# How it was run: (§1)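 Activity is measured against peptides serially diluted two-fold in water with 0.002% final Polysorbate 80. The cells are in cation-adjusted MHII broth at roughly 5×10^5 CFU/mL, prepared from a 0.5 McFarland suspension in 0.85% NaCl.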
# [2] = test system: Escherichia coli ATCC 25922
# How it was run: as §1
# [3] = test system: Escherichia coli MCR-1 Af 45
# How it was run: as §1
# [4] = test system: human red blood cells (hRBC); test: Hemolysis of human red blood cells; format: cell-based
# How it was run: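 PBS-washed human red blood cells (20% v/v) were incubated with peptide at 200 μg/mL for 1 h at 37 °C with shaking. Supernatant OD was read at 540 nm after 8-fold dilution. Hemolysis is expressed as percent of the water control.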
# [5] = Mueller-Hinton broth II, 18-20 hours at 35° C.
Escherichia coli MCR-1 Af 45 MIC ([3]; MCR-1 Af 45),Structure (SMILES),Klebsiella pneumoniae SSI3010 MIC ([1]; SSI3010),Escherichia coli ATCC 25922 MIC ([2]; ATCC 25922),"Escherichia coli MCR-1 Af 45 MIC [3, 5]","Hemolysis at 0.2 g/L ([4]; red cells of human, 1 h)","Klebsiella pneumoniae SSI3010 MIC [1, 5]","Escherichia coli ATCC 25922 MIC [2, 5]","Hemolysis at 0.2 g/L ([4]; 20% hRBC, 1 h at 37° C.)"
–,"CC[C@H](C)[C@H](NC(=O)[C@@H]1C[C@@H](O)CN1C(=O)[C@@H](NC(=N)N)C(C)C)C(=O)N[C@H](C(=O)N[C@@H](Cc1ccc(O)cc1)C(=O)N[C@@H]1C(=O)N[C@@H](CC(N)=O)C(=O)N[C@@H](CCCNC(=N)N)C(=O)N[C@@H](CCN)C(=O)N[C@@H]([C@@H](C)O)C(=O)N[C@H](CCN)C(=O)N[C@@H](CCN)C(=O)N[C@H](C(=O)N[C@@H](CCN)C(=O)N[C@@H](CCCNC(=N)N)C(=O)N[C@@H](Cc2ccc(O)cc2)C(=O)O)CSSC1(C)C)[C@@H](C)O [Example 195] (HELM PEPTIDE1{[CC(C)[C@H](NC(=N)N)C(=O)[*:2]].[Hyp].I.T.Y.[Pen].N.R.[Dab].T.[NCC[C@@H](N[*:1])C(=O)[*:2]].[Dab].C.[Dab].R.Y}$PEPTIDE1,PEPTIDE1,6:R3-13:R3$$$V2.0)",0.125 µg/mL,0.25 µg/mL,0.0625 µg/mL,0%,–,–,–
–,"CC[C@H](C)[C@H](NC(=O)[C@@H](NC(=O)[C@@H]1C[C@@H](O)CN1C(=O)[C@@H](NC(=N)N)C(C)C)[C@@H](C)CC)C(=O)N[C@@H](Cc1ccc(O)cc1)C(=O)N[C@@H]1C(=O)N[C@@H](CC(N)=O)C(=O)N[C@@H](CCCNC(=N)N)C(=O)N[C@@H](CCN)C(=O)N[C@@H]([C@@H](C)O)C(=O)N[C@H](CCN)C(=O)N[C@@H](CCCCN)C(=O)N[C@H](C(=O)N[C@@H](CCN)C(=O)N[C@@H](CCCNC(=N)N)C(=O)N[C@@H](Cc2ccc(O)cc2)C(=O)O)CSSC1(C)C [Example 189] (HELM PEPTIDE1{[CC(C)[C@H](NC(=N)N)C(=O)[*:2]].[Hyp].I.I.Y.[Pen].N.R.[Dab].T.[NCC[C@@H](N[*:1])C(=O)[*:2]].K.C.[Dab].R.Y}$PEPTIDE1,PEPTIDE1,6:R3-13:R3$$$V2.0)",–,–,0.03125 µg/mL,–,0.0625 µg/mL,0.03125 µg/mL,0%
0.25 µg/mL,"CC[C@H](C)[C@H](NC(=O)[C@@H](NC(=O)[C@@H]1CCCN1C(=O)[C@@H](NC(=O)[C@@H]1C[C@@H](N)CN1C(=O)[C@H](CCCCN)NC(=O)[C@@H](N)CCCCN)C(C)C)[C@@H](C)CC)C(=O)N[C@@H](Cc1ccc(O)cc1)C(=O)N[C@H]1CCC(=O)NCC[C@@H](C(=O)N[C@@H](CCN)C(=O)N[C@@H](CCCNC(=N)N)C(=O)N[C@@H](Cc2ccc(O)cc2)C(=O)O)NC(=O)[C@H](CCCCN)NC(=O)[C@@H](CCN)NC(=O)[C@H]([C@@H](C)O)NC(=O)[C@H](CCN)NC(=O)[C@H](CCCNC(=N)N)NC(=O)[C@H](CC(N)=O)NC1=O [Example 133] (HELM PEPTIDE1{K.K.[N[C@@H]1C[C@@H](C(=O)[*:2])N([*:1])C1].V.P.I.I.Y.E.N.R.[Dab].T.[NCC[C@@H](N[*:1])C(=O)[*:2]].K.[Dab].[Dab].R.Y}$PEPTIDE1,PEPTIDE1,9:R3-16:R3$$$V2.0)",0.25 µg/mL,0.25 µg/mL,–,0%,–,–,–
–,"CC[C@H](C)[C@H](NC(=O)[C@@H]1C[C@@H](O)CN1C(=O)[C@@H](N)C(C)C)C(=O)N[C@H](C(=O)N[C@@H](Cc1ccc(O)cc1)C(=O)N[C@@H]1C(=O)N[C@@H](C)C(=O)N[C@@H](CCCNC(=N)N)C(=O)N[C@@H](CCN)C(=O)N[C@@H]([C@@H](C)O)C(=O)N[C@H](CCN)C(=O)N[C@@H](CCCCN)C(=O)N[C@H](C(=O)N[C@@H](CCN)C(=O)N[C@@H](CCCNC(=N)N)C(=O)N[C@@H](Cc2ccc(O)cc2)C(=O)O)CSSC1(C)C)[C@@H](C)O [Example 161] (HELM PEPTIDE1{V.[Hyp].I.T.Y.[Pen].A.R.[Dab].T.[NCC[C@@H](N[*:1])C(=O)[*:2]].K.C.[Dab].R.Y}$PEPTIDE1,PEPTIDE1,6:R3-13:R3$$$V2.0)",0.5 µg/mL,0.25 µg/mL,0.125 µg/mL,0%,–,–,–
–,"CCCC[C@H](NC(=O)[C@H](CCCNC(=N)N)NC(=O)[C@H](CCN)NC(=O)[C@@H]1CSSC(C)(C)[C@H](NC(=O)[C@H](Cc2ccc(O)cc2)NC(=O)[C@@H](NC(=O)[C@@H](NC(=O)CN(CCN)C(=O)[C@@H](N)C(C)C)[C@@H](C)CC)[C@@H](C)CC)C(=O)N[C@@H](CC(N)=O)C(=O)N[C@@H](CCCNC(=N)N)C(=O)N[C@@H](CCN)C(=O)N[C@@H]([C@@H](C)O)C(=O)N[C@H](CCN)C(=O)N[C@@H](CCCCN)C(=O)N1)C(=O)O [Example 137] (HELM PEPTIDE1{V.[NCCN(CC(=O)[*:2])[*:1]].I.I.Y.[Pen].N.R.[Dab].T.[NCC[C@@H](N[*:1])C(=O)[*:2]].K.C.[Dab].R.[Nle]}$PEPTIDE1,PEPTIDE1,6:R3-13:R3$$$V2.0)",0.25 µg/mL,0.125 µg/mL,0.0625 µg/mL,0%,–,–,–
≤0.03125 µg/mL,"CC[C@H](C)[C@H](NC(=O)CN(CCN)C(=O)[C@@H](NC(=O)[C@@H]1C[C@@H](O)CN1C(=O)[C@H](CCCCN)NC(=O)[C@@H](N)CCCCN)C(C)C)C(=O)N[C@H](C(=O)N[C@@H](Cc1ccc(O)cc1)C(=O)N[C@@H]1C(=O)N[C@@H](CC(N)=O)C(=O)N[C@@H](CCCNC(=N)N)C(=O)N[C@@H](CCN)C(=O)N[C@@H]([C@@H](C)O)C(=O)N[C@H](CCN)C(=O)N[C@@H](CCCCN)C(=O)N[C@H](C(=O)N[C@@H](CCN)C(=O)N[C@@H](CCCNC(=N)N)C(=O)N[C@@H](Cc2ccc(O)cc2)C(=O)O)CSSC1(C)C)[C@@H](C)O [Example 126, Lys-Lys-Hyp-Val-Ndab-Ile-Thr-Tyr-Pen-Asn-Arg-Dab-Thr-^DDab-Lys-Cys-Dab-Arg-Tyr] (HELM PEPTIDE1{K.K.[Hyp].V.[NCCN(CC(=O)[*:2])[*:1]].I.T.Y.[Pen].N.R.[Dab].T.[NCC[C@@H](N[*:1])C(=O)[*:2]].K.C.[Dab].R.Y}$PEPTIDE1,PEPTIDE1,9:R3-16:R3$$$V2.0)",0.0625 µg/mL,≤0.03125 µg/mL,–,0%,–,–,–
0.03125 µg/mL,"CC[C@H](C)[C@H](NC(=O)[C@@H]1C[C@@H](O)CN1C(=O)[C@@H](NC(=O)[C@@H]1CCCN1C(=O)[C@H](CCCCN)NC(=O)[C@@H](N)CCCCN)C(C)C)C(=O)N[C@H](C(=O)N[C@@H](Cc1ccc(O)cc1)C(=O)N[C@H]1CSSC[C@@H](C(=O)N[C@@H](CCN)C(=O)N[C@@H](CCCNC(=N)N)C(=O)N[C@@H](Cc2ccc(O)cc2)C(=O)O)NC(=O)[C@H](CCCCN)NC(=O)[C@@H](CCN)NC(=O)[C@H]([C@@H](C)O)NC(=O)[C@H](CCN)NC(=O)[C@H](CCCNC(=N)N)NC(=O)[C@H](CC(N)=O)NC1=O)[C@@H](C)O [Example 119, Lys-Lys-Pro-Val-Hyp-Ile-Thr-Tyr-Cys-Asn-Arg-Dab-Thr-^DDab-Lys-Cys-Dab-Arg-Tyr] (HELM PEPTIDE1{K.K.P.V.[Hyp].I.T.Y.C.N.R.[Dab].T.[NCC[C@@H](N[*:1])C(=O)[*:2]].K.C.[Dab].R.Y}$PEPTIDE1,PEPTIDE1,9:R3-16:R3$$$V2.0)",0.0625 µg/mL,0.03125 µg/mL,–,1%,–,–,–
–,"CC[C@H](C)[C@H](NC(=O)[C@@H]1C[C@@H](N)CN1C(=O)[C@@H](N)C(C)C)C(=O)N[C@H](C(=O)N[C@@H](Cc1ccc(O)cc1)C(=O)N[C@@H]1C(=O)N[C@@H](CC(N)=O)C(=O)N[C@@H](CCCNC(=N)N)C(=O)N[C@@H](CCN)C(=O)N[C@@H]([C@@H](C)O)C(=O)N[C@H](CCN)C(=O)N[C@@H](CCCCN)C(=O)N[C@H](C(=O)N[C@@H](Cc2ccc(O)cc2)C(=O)N[C@@H](CCCNC(=N)N)C(=O)N[C@@H](Cc2ccc(O)cc2)C(=O)O)CSSC1(C)C)[C@@H](C)O [Example 185] (HELM PEPTIDE1{V.[N[C@@H]1C[C@@H](C(=O)[*:2])N([*:1])C1].I.T.Y.[Pen].N.R.[Dab].T.[NCC[C@@H](N[*:1])C(=O)[*:2]].K.C.Y.R.Y}$PEPTIDE1,PEPTIDE1,6:R3-13:R3$$$V2.0)",0.5 µg/mL,0.25 µg/mL,0.125 µg/mL,0%,–,–,–
0.0625 µg/mL,"CC[C@H](C)[C@H](NC(=O)[C@@H](NC(=O)[C@@H]1CCCN1C(=O)[C@@H](NC(=O)CNC(=O)CNC(=O)[C@@H](N)CCCCN)C(C)C)[C@@H](C)CC)C(=O)N[C@@H](Cc1ccc(O)cc1)C(=O)N[C@@H]1C(=O)N[C@@H](CC(N)=O)C(=O)N[C@@H](CCCNC(=N)N)C(=O)N[C@@H](CCN)C(=O)N[C@@H]([C@@H](C)O)C(=O)N[C@H](CCN)C(=O)N[C@@H](CCCCN)C(=O)N[C@H](C(=O)N[C@@H](CCN)C(=O)N[C@@H](CCCNC(=N)N)C(=O)N[C@@H](Cc2ccc(O)cc2)C(=O)O)CSSC1(C)C [Example 93] (HELM PEPTIDE1{K.G.G.V.P.I.I.Y.[Pen].N.R.[Dab].T.[NCC[C@@H](N[*:1])C(=O)[*:2]].K.C.[Dab].R.Y}$PEPTIDE1,PEPTIDE1,9:R3-16:R3$$$V2.0)",0.125 µg/mL,0.0625 µg/mL,–,0%,–,–,–
